The test system of series [1] is carrageenin-induced paw edema. As to the kind of experiment: Effect on carrageenin-induced paw edema. In kind it is in vivo, male Wistar rats. Particulars: Rattus norvegicus; p.o., 3 hours after carrageenin; read-out: Suppression rate for paw swelling, carrageenin-induced edema. A digest of the protocol: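 Male Wistar rats (150-160 g, n=3-5) dosed orally at 25, 50 or 100 mg/kg, one hour before 0.1 ml 1% carrageenin injected subcutaneously into the right hind footpad. Paw volume by plethysmograph before and 3 h after; suppression of swelling rate relative to saline controls.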
In general terms: The carrageenan paw model is a standard test of acute inflammation.

The subject of series [2] is zymosan-induced paw edema. Put plainly: Effect on zymosan-induced paw edema. In kind it is in vivo, male Wistar rats. The settings on record: Rattus norvegicus, po, read-out: Suppression rate for paw swelling, zymosan-induced edema.
For series [3], the system named is platelet activating factor (PAF)-induced mortality. Put plainly: Inhibition effect on platelet activating factor (PAF)-induced mortality. It counts as in vivo, male dd mice. Particulars: Mus musculus, po, PAF 40 μg/kg i.v., 3 h, n = 10, control group survival 0-20%, read-out: Survival rate of test compound-administered group. The method in brief:
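Male dd mice (28–32 g, 10 per group) dosed orally with 50 or 100 mg/kg compound or saline. PAF at 40 μg/kg given intravenously 1 h later; mortality recorded 3 h after PAF injection.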

Series [4] concerns Type III allergic reaction-induced pleurisy. As to the kind of experiment: Effect on Type III allergic reaction-induced pleurisy. It counts as in vivo, male Wistar rats. The settings on record: 100 mg/kg orally; rats; 4.5 h after induction of pleurisy. As for the experimental part: c) Effect on Type III allergic reaction-induced pleurisy
1. Preparation of IgG fraction of rabbit anti-egg white albumin (anti-OA)
IgG was purified from rabbit anti-OA serum prepared in advance by the method of Koda et al. [Folia Pharmacol., Japon 66, 237, (1970)] in the following manner.
A saturated solution of ammonium sulfate (half volume of the serum) was added to the anti-OA serum, and the mixture was left for one hour at 4° C. The precipitate was taken by centrifugation (3,000 rpm, 30 min. 4° C.) and dissolved in phosphate buffer of Dulbecco. Then, ammonium sulfate fractionation was carried out three times in the same manner as above, whereby a purified IgG fraction was obtained.
2. Type III allergic reaction-induced pleurisy
Male Wistar rats weighing 225-250 g were pre-bred for several days and fasted overnight prior to the experiment. The test compound (100 mg/kg) was orally administered to the animals, and after 30 minutes, a solution of IgC of rabbit anti-OA (0.2 ml, 5 mg protein/ml) was injected into the pleural cavity of the animals from the right side of thorax under anesthesia with ether. Thirty minutes after the injection of IgG, OA (albumin egg grade III; Sigma Chemical Co.) was intravenously injected into the animals as an inducer of pleurisy. After two hours, Evans Blue (25 mg/kg) was intravenously injected, and four and a half hours after the induction of pleurisy, the animals were killed by bleeding.
Then, an exudate in the pleural cavity was obtained, and the volume of the exudate was measured. The pleural cavity was rinsed with 5 ml of physiological saline and the rinsings were added to the exudate. The number of infiltrated cells in the mixture was counted and the volume of the dye in the mixture was determined by the absorption at 625 nm [Agent Actions., 25, 326 (1988)]. The suppression rates for the volume of the exudate, the number of infiltrated cells and the volume of the dye in the pleural cavity were calculated by the following equation 3. [formula] […]

For series [5], the system named is passive Schultz-Dale reaction. As to the kind of experiment: Effect on passive Schultz-Dale reaction (broncho-dilative activity), sensitized tracheal strips contracted by antigen. Further details: species or system male Hartley guinea pigs. Particulars: guinea pig tracheal zig-zag strips, 37° C., antigen egg white albumin 1 μg/ml; read-out: Passive Schultz-Dale reaction IC50 (concentration of 50% relaxation rate). A digest of the protocol: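 Male Hartley guinea pigs were passively sensitized i.p. with rabbit anti-OA serum, and tracheal zig-zag strips were taken 24 h later. Compounds were added cumulatively at the plateau, and IC50 (50% relaxation) was taken from the regression line of the concentration-relaxation curves.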

In a further series the test system is ddY strain male mice. As to the kind of experiment: Acute toxicity (Minimum Lethal Dose). It counts as in vivo. As for the experimental part:
The test compound was orally and intraperitoneally administered to ddY strain male mice weighing 20 to 25 g. MLD (Minimum Lethal Dose) was determined by observing the mortality for […] after the administration.

For the molecule `CCCCn1c(=O)c2ncn(C)c2c2cccnc21` [Compound 1, 5-(n-Butyl)-1-methyl-1H-imidazo[4,5-c][1,8]naphthyridin-4(5H)-one], the inhibition in vivo at 100 mg/kg in series [1] is 40.1%. For the same molecule, the inhibition in vivo at 100 mg/kg in series [2] turned out to be 38.8%. The responders at 100 mg/kg in series [3] was 90%. In addition, in series [4], the “Suppression rate, number of infiltrated cells in the exudate” value came to 84.1%; the “Suppression rate, volume of dye in the exudate” value is 80.3%; the “Suppression rate, volume of exudate” value is given as 100%. The IC50 in series [5] was determined as 12 µM.
Regarding `CC(=O)Cn1cnc2c3cccnc3n(-c3ccccc3)c(=O)c21` [Compound 14, 3-(2-Oxopropyl)-5-phenyl-3H-imidazo[4,5-c][1,8]naphthyridin-4(5H)-one], the inhibition in vivo at 100 mg/kg in series [1] came out at 44%. Besides, the inhibition in vivo at 25 mg/kg in series [2] (25 mg/kg P.O.) turned out to be 53.7%. In addition, the responders at 100 mg/kg in series [3] amounted to 100%. The IC50 in series [5] came to 5.8 µM. Further, the “MLD (Minimum Lethal Dose) i.p.” value with ddY strain male mice (i.p.) is over 100 mg/kg. The “MLD (Minimum Lethal Dose) p.o.” value in the series with ddY strain male mice (p.o.) is over 100 mg/kg.

(Values after patent publication US5468756A, “Imidazonaphthyridine derivatives” (Kyowa Hakko Kogyo Co., Ltd., priority 1990, dated 1995).)
